Like-named read-outs stand apart in the source and are kept apart here.
Columns and labels:
M2 22-62 (S31N) = M2 22-62 (S31N) (Influenza A virus, UniProt P0DOF5, C50S/S31N); assay type: biochemical
[1] = system: Influenza A/Victoria/3/75 (H3N2); experiment: microbe, parasite or virus in culture; assay type: cell-based
A/WS/33 (H1N1), M2 S31N = assay type: cell-based, Influenza A virus
[2] = system: A/PR/8/34 (H1N1), M2 V27T/S31N; assay type: cell-based, Influenza A virus
[3] = system: Influenza A/California/07/2009 (H1N1), M2 S31N; settings: cited from earlier work
[4] = system: Influenza A/California/07/2009 (H1N1), M2 S31N; assay type: cell-based, Influenza A virus
[5] = system: Influenza A/California/07/2009 (H1N1); assay type: cell-based, Influenza A virus; settings: read-out: EC50 against the passage 12 7-resistant mutant
[6] = read-out: EC50 A/Calif/07/09 (H1N1)
[7] = read-out: EC50s of the drug components of the incubation mixture

NC12CC3CC(CC(C3)C1)C2 [Amantadine (1), Amantadine, reference compound]
H^+ Uptake Rate ± SD (%) (N) (M2 22-62 (S31N)): 77 ± 29 (8) % | EC50 ± S.E. (μM) [1]: Inactive | Resistance development [1]: complete during a single 3-4 day passage | EC50 ([1]; Influenza A virus, H3N2, read-out: EC50 ± S.E. (μM)): 2.8 ± 0.3 µM | EC50 (A/WS/33 (H1N1), M2 S31N): 24 µM | EC50 [2]: 24 µM | activity against H1N1 (2009) (known) [3]: inactive | EC50 [4, 6]: 240 µM | EC50 ([4]; read-out: EC50 ± SE (μM) (N)): 242 µM

O=C1CCC2(N1)C1CC3CC(C1)CC2C3 (stereo not shown) [Compound 3]
EC50 ([4]; read-out: EC50 ± SE (μM) (N)): 15.6 µM

C1CCC2(NC1)C1CC3CC(C1)CC2C3 (stereo not shown) [Compound 6]
H^+ Uptake Rate ± SD (%) (N) (M2 22-62 (S31N)): 1.3 ± 5.7 (6) % | EC50 ([4]; read-out: EC50 ± SE (μM) (N)): 19.8 µM

CCCC1(N)C2CC3CC(C2)CC1C3 (stereo not shown) [Compound 7]
H^+ Uptake Rate ± SD (%) (N) (M2 22-62 (S31N)): 24 ± 17 (6) % | EC50 (A/WS/33 (H1N1), M2 S31N): 390 µM | EC50 [2]: 0.5 µM | EC50 [4, 6]: 4.7 µM | EC50 ([4]; read-out: EC50 ± SE (μM) (N)): 4.71 µM

C1CNC(C23CC4CC(CC(C4)C2)C3)C1 (stereo not shown) [Compound 8]
H^+ Uptake Rate ± SD (%) (N) (M2 22-62 (S31N)): 12 ± 13 (5) % | EC50 ([4]; read-out: EC50 ± SE (μM) (N)): 15.4 µM

NC1(C23CC4CC(CC(C4)C2)C3)CCCC1 [Compound 9]
H^+ Uptake Rate ± SD (%) (N) (M2 22-62 (S31N)): 11 ± 25 (3) % | EC50 [5]: 22 ± 2 µM | EC50 [4, 7]: 0.36 µM | EC50 ([4]; read-out: EC50 ± SE (μM) (N)): 0.79 µM

C1CCC(C23CC4CC(CC(C4)C2)C3)NC1 (stereo not shown) [Compound 10]
EC50 [4, 7]: 2.8 µM | EC50 ([4]; read-out: EC50 ± SE (μM) (N)): 7 µM

CC12CC3CC(CC(C3)C13CCCN3)C2 [Compound 11, (1r,3s,5R,7S)-1-methylspiro[adamantane-2,2′-pyrrolidine]]
H^+ Uptake Rate ± SD (%) (N) (M2 22-62 (S31N)): 17 ± 8.7 (6) % | EC50 ([4]; read-out: EC50 ± SE (μM) (N)): 36 µM

NCCN1CCCC12C1CC3CC(C1)CC2C3 (stereo not shown) [Compound 12, 2-((1r,3r,5r,7r)-spiro[adamantane-2,2′-pyrrolidin]-1′-yl)ethan-1-amine]
H^+ Uptake Rate ± SD (%) (N) (M2 22-62 (S31N)): 11 ± 18 (4) % | EC50 ([4]; read-out: EC50 ± SE (μM) (N)): 2.66 µM

NC1(C23CC4CC(CC(C4)C2)C3)CCCCC1 [Compound 13, 1-((3r,5r,7r)-adamantan-1-yl)cyclohexan-1-amine]
EC50 [5]: 10 ± 2 µM | EC50 ([4]; read-out: EC50 ± SE (μM) (N)): 3.62 µM

CCCCC1(N)C2CC3CC(C2)CC1C3 (stereo not shown) [Compound 17, (1r,3r,5r,7r)-2-butyladamantan-2-amine]
EC50 (A/WS/33 (H1N1), M2 S31N): 355 µM | EC50 [2]: 0.3 µM | EC50 [4, 6]: 8.5 µM

CC(C)CC1(N)C2CC3CC(C2)CC1C3 (stereo not shown) [Compound 18, (1r,3r,5r,7r)-2-isobutyladamantan-2-amine]
EC50 (A/WS/33 (H1N1), M2 S31N): 210 µM | EC50 [2]: 0.3 µM | EC50 [4, 6]: 8 µM

NC1(c2ccccc2)C2CC3CC(C2)CC1C3 (stereo not shown) [Compound 19, (1r,3r,5r,7r)-2-phenyladamantan-2-amine]
EC50 (A/WS/33 (H1N1), M2 S31N): 86 µM | EC50 [2]: < 0.3 µM | EC50 [4, 6]: 21 µM | EC50 [4, 7]: 9.2 µM

NC1(Cc2ccccc2)C2CC3CC(C2)CC1C3 (stereo not shown) [Compound 20, (1r,3r,5r,7r)-2-benzyladamantan-2-amine]
EC50 (A/WS/33 (H1N1), M2 S31N): 280 µM | EC50 [2]: 1.2 µM | EC50 [4, 6]: 8.6 µM

CCCCCCC1(N)C2CC3CC(C2)CC1C3 (stereo not shown) [Compound 101, 2-n-hexyl-tricyclo[3.3.1.1^3,7]decan-2-amine]
EC50 (A/WS/33 (H1N1), M2 S31N): 13 µM | inhibition of the A/WS/33 strain (in words) (A/WS/33 (H1N1), M2 S31N): some inhibitory effect | EC50 [2]: 0.07 µM | EC50 [4, 6]: 0.13 µM

CC(C)(N)C12CC3CC(CC(C3)C1)C2 [Compound 259, 2-(adamantan-1-yl)propan-2-amine]
EC50 (A/WS/33 (H1N1), M2 S31N): 300 µM | EC50 [2]: < 0.2 µM | EC50 [4, 6]: 24 µM

CC1CCC2(N1)C1CC3CC(C1)CC2C3 (stereo not shown) [Compound 341, 5-methylspiro[pyrrolidine-2,2′-tricyclo[3.3.1.1^3,7]decane]]
efficacy against A/California/07/2009 (in words) [4]: less effective than the others | EC50 [4, 6]: 34 µM

CC1CNC2(C1)C1CC3CC(C1)CC2C3 (stereo not shown) [Compound 342, 4-Methylspiro[pyrrolidine-2,2′-tricyclo[3.3.1.1^3,7]decane]]
EC50 [4, 6]: 9.5 µM

CC1CCNC12C1CC3CC(C1)CC2C3 (stereo not shown) [Compound 343, 3-Methylspiro[pyrrolidine-2,2′-tricyclo[3.3.1.1^3,7]decane]]
EC50 [4, 6]: 7.2 µM

CC1CCC2(C3CC4CC(C3)CC2C4)N1C (stereo not shown) [Compound 344, 1,5-Dimethylspiro[pyrrolidine-2,2′-tricyclo[3.3.1.1^3,7]decane]]
EC50 [4, 6]: 7.7 µM

CC1CN(C)C2(C1)C1CC3CC(C1)CC2C3 (stereo not shown) [Compound 345, 1,4-dimethylspiro[pyrrolidine-2,2′-tricyclo [3.3.1.1^3,7]decane]]
EC50 [4, 6]: 7 µM

CC1CCN(C)C12C1CC3CC(C1)CC2C3 (stereo not shown) [Compound 346, 1,3-dimethylspiro[pyrrolidine-2,2′-tricyclo [3.3.1.1^3,7]decane]]
EC50 [4, 6]: 10.2 µM

CCC1CCC2(N1)C1CC3CC(C1)CC2C3 (stereo not shown) [Compound 347, 5-ethylspiro[pyrrolidine-2,2′-tricyclo[3.3.1.1^3,7]decane]]
EC50 [4, 6]: 8.7 µM

CC(N)C12CC3CC(CC(C3)C1)C2 (stereo not shown) [Rimantadine (2), Rimantadine, reference compound]
EC50 (A/WS/33 (H1N1), M2 S31N): 310 µM | EC50 [2]: 3.3 µM | activity against H1N1 (2009) (known) [3]: inactive | EC50 [4, 6]: 110 µM | EC50 ([4]; read-out: EC50 ± SE (μM) (N)): 106 µM
